{"source": "patent US20260108602A1", "about": "“METHODS AND SYSTEMS FOR IMPROVING ANTI-CANCER THERAPIES” (Osasuna Therapeutics SA, priority 2023, published 2026)", "key": {"[1]": {"tested_on": "Dbi^+/+ and Dbi^−/− HCC cells", "assay": "CCK-8 viability assay of primary HCC cells treated with ferroptosis inducers", "assay_type": "cell-based, mouse", "conditions": "ferroptosis inducer combined with Dbi knockout; normalized to respective Dbi^+/+ and Dbi^−/− vehicle controls", "experimental": "(FIG. 26A-FIG. 26D). Groups receiving ferroptosis inducers were normalized to their respective Dbi^+/+ and Dbi^−/− vehicle (Veh) treated control groups.\nProliferation assays. CCK-8 assays were performed with a commercial kit. For colony formation assays, HEPG-2 (NC, SH1, SH2, and SH3, 1000 cells/well), HUH-7 (NC, SH1, SH2, and SH3, 1000 cells/well) and Hep55.1C (NC, SH1, SH2, and SH3, 500 cells/well) cancer cells were seeded into 6-well plates in 2 mL medium with 10% FBS. The medium was changed every 3 days until control (NC) wells approached confluency, within 7-14 days. After gently washed twice with PBS, colonies were fixed with 4% paraformaldehyde for 30 min and stained with 0.2% crystal violet for 30 min at room temperature. The colony number (colonies >0.3 mm) was counted with isoftware. All experiments were performed in triplicates.\nSix-well plates were coated with 2% FBS/PBS+0.1% laminin. HCC tumors were isolated from NASH-driven mouse model (WD+D-fructose+D-glucose in water+CCl4 administered to DBI^+/+ or DBI^−/− mice) and washed twice with ice-cold PBS. The tumor tissues were transferred to 10 cm plates, minced completely with a razor blade and then transferred to 15 mL falcon tubes. Ten mL 2 mg/mL collagenase dispase solution was added, the cells were incubated rotating for 30 min at 37° C. and were filtered through 100 μm meshes into 50 mL falcon tubes, before addition of 10 mL 2% FBS/PBS to wash the tissues. The samples were then filtered sequentially through 70 μm and 40 μm strainers, brought up to 15 mL volume and centrifuged again (room temperature (RT), 1000 rpm, 2 min). The cells were then resuspended in 5 mL of 1×red blood cell (RBC) lysis buffer, incubated on ice for 10 min before addition of 5 mL 2% FBS/PBS, followed by spinning (RT, 1000 rpm, 2 min). The washing step was repeated 2 times, and the cells were resuspended in culture medium (500 mL DMEM+10% FBS+1×ITS+20 μl EGF (1 μg/μl)+20 μl IGFII (0.2 μg/μl)), before seeding into 6-well plates."}, "TC1 NSCLC cells": {"tested_on": "TC1 NSCLC cells", "assay": "Orthotopic TC1 Luc lung cancer model (bioluminescence imaging)", "assay_type": "in vivo, C57BL/6J mice", "conditions": "corticosterone in drinking water + OXA + anti-PD1", "experimental": "TC-1—To establish the orthotopic TC1 model, wild type TC1 Luc cells (5×10^5 in 100 μL PBS) were intravenously injected to wild type C57BL/6J mice. Tumor incidence and development were monitored by in vivo photonic imaging of tumor cells' luciferase activity. About 7 days after injection, tumor incidence in the lung was detected at an exposure time of 4 min, and mice were randomized according to quantified tumor sizes and assigned to different groups for treatment as described below. Anti-DBI or isotype control antibody was intraperitoneally (i.p.) injected on day 9, at the dose of 2.5 mg/kg body weight, and on day 10, then maintained every other day until day 18. […]\nNext, the positive effects of anti-ACBP/DBI mAb on chemo-immunotherapy in another model, namely non-small cell lung cancers (NSCLC) were confirmed. TC1 NSCLC cells expressing luciferase injected intravenously (i.v.) into syngeneic immunocompetent C57BL/6J mice form orthotopic lung cancers that can be monitored by bioluminescence imaging. […] From day 9 post-inoculation of TC1 cells, NSCLC-bearing mice were periodically i.p. injected with anti-ACBP/DBI mAb (or an isotype control mAb) and then were treated on day 11 post-inoculation with OXA (i.p. once) and anti-PD1 mAb (injected i.p. on days 19, 23 and 27 post-TC1 injection) (FIG. 4A) and tumor progression was determined by bioluminescence imaging (FIG. 4B). […]"}, "[2]": {"tested_on": "MCA205 fibrosarcoma cells", "assay": "Anti-tumor vaccination assay (MTX-treated MCA205 cells, rechallenge with live cells)", "assay_type": "in vivo, C57BL/6J mice", "conditions": "CORT in drinking water + vaccination with MTX-treated MCA205 cells", "experimental": "Wild-type MCA205 cells were treated with MTX (4 μM) for 24 h. Then supernatants and detached cells were collected and centrifuged, and the pellet was further washed with ice-cold PBS. 2×10^6 cells in 100 μl PBS were s.c. injected to the left flank of immunocompetent C57BL/6J mice (day −7). PBS was injected as a negative control. One week later, all mice were confirmed tumor-free in the vaccination flank and living cancer cells (2×10^5 cells per mouse for MCA205 cells) were injected in the right flank of vaccinated mice (day 0). Corticosterone and neutralizing anti-DBI monoclonal antibody were continually administrated throughout the experiment. Tumor growth was regularly monitored for the following weeks.\nAfter the first week of treatment, the animals were subcutaneously (s.c.) injected with mitoxantrone (MTX)-treated MCA205 fibrosarcoma cells, knowing that MTX-induces ICD and that MTX-treated cancer cells induce a protective anti-cancer immune response that suppresses, delays or reduces the growth of tumors that would grow in naïve mice after injection of live, untreated MCA205 fibrosarcoma cell. [Panaretakis T. et al., Mechanisms of pre-apoptotic calreticulin exposure in immunogenic cell death, EMNO J, 2009, 28 (5), pp. 578-590.]"}, "[3]": {"tested_on": "E0771 breast cancer cells", "assay": "Subcutaneous E0771 breast cancer model with anti-PD1 immunotherapy", "quoted_text": "E0771—For the establishment of syngeneic solid tumors, C57BL/6J mice (8-weeks-old female) were injected subcutaneously (s.c.) with 5×10^5 wild type E0771 in the right lower quadrant of the abdomen alongside of the mammary gland (close to the orthotopic site). Approximately 7 days after injection, tumor growth was monitored with an electronic caliper and mice were assigned to different groups. From day 8, mice were treated with a neutralizing anti-DBI monoclonal antibody (5 mg/kg) or its isotype (IgG2A, 5 mg/kg) every two days. At the same time, free corticosterone (Sigma-Aldrich) was added to the drinking water (0.1 mg/ml; water/ethanol 0.66%). Anti-PD1 monoclonal antibody (αPD1; 10 mg/kg) was injected at days 12, 15, 18 and 21. Tumor growth was monitored routinely with an electronic caliper.\nFor tumor growth experiments, longitudinal analyses were performed by linear mixed effect modeling of tumor sizes. […]\nC57BL/6J mice were inoculated subcutaneously (s.c.) with syngeneic E0771 breast cancer cells. Six days later treatment of corticosterone (CORT or as a control with vehicle only, 0.66% ethanol, which was administered in the drinking water) and anti-ACBP/DBI mAb (or the isotype control mAb, both injected i.p. three times per week) was initiated and tumor growth was monitored over several weeks. […]"}}}
{"compound": "CC(C)Oc1ccc(C(=O)Cn2ccnc2)cc1-n1c(CN2CCN(C(=O)COc3ccc(Cl)cc3)CC2)nc2ccccc2c1=O", "note": "[IKE, imidazole ketone erastin]", "values": [{"measurement": "viability (CCK-8)", "setting": "[1]", "value": "particularly vulnerable to losing their viability"}]}
{"compound": "CCCCC/C=C\\C/C=C\\CCCCCCCC(=O)O", "note": "[LA, linoleic acid]", "values": [{"measurement": "viability (CCK-8)", "setting": "[1]", "value": "particularly vulnerable to losing their viability"}]}
{"compound": "COC(=O)c1ccc([C@@H]2c3[nH]c4ccccc4c3C[C@@H](C(=O)OC)N2C(=O)CCl)cc1", "note": "[RSL3]", "values": [{"measurement": "viability (CCK-8)", "setting": "[1]", "value": "particularly vulnerable to losing their viability"}]}
{"compound": "C[C@]12C[C@H](O)[C@H]3[C@@H](CCC4=CC(=O)CC[C@@]43C)[C@@H]1CC[C@@H]2C(=O)CO", "note": "[corticosterone]", "values": [{"measurement": "chemo-immunotherapeutic effect (tumor size by bioluminescence)", "setting": "TC1 NSCLC cells", "value": "strongly interfered"}, {"measurement": "vaccination effect", "setting": "[2]", "value": "reduced this vaccination effect"}, {"measurement": "tumor growth (effect of anti-PD1)", "setting": "[3]; CORT in drinking water + anti-PD1", "value": "lost"}, {"measurement": "animal survival (efficacy of anti-PD1)", "setting": "[3]; corticotherapy + anti-PD1", "value": "loss"}]}
